Measurements taken from publication PMC9884089 (Journal of Medicinal Chemistry, 2023).

What was measured:
[1] = PAMPA, gastrointestinal tract (GI) permeability; assay type: in vitro ADME; conditions: phosphatidylcholine; for Papp at 5 h, 500 μM: pH 7.4, 5 h
Method: Each “donor solution” was prepared from a solution of the appropriate compound (DMSO, 1 mM) diluted with phosphate buffer (pH 7.4, 0.025 M) up to a final concentration of 500 μM. […] Donor solution (150 μL) was added to each well of the filter plate and to each well of the acceptor plate was added 300 μL of solution (50% DMSO in phosphate buffer). The sandwich plate was assembled and incubated for 5 h at r.t. After the incubation time, the plates were separated, and the samples were taken from both the donor and acceptor wells, and the amount of compound was measured by UV/LC–MS. All compounds were tested in three independent experiments. […] Drug concentration is estimated by using the peak area integration. Membrane retentions (%) were calculated according to the following equation [drawing 2] where r is the ratio between drug concentration in the acceptor and equilibrium concentration and D, A, and Eq represent drug concentration in the donor, acceptor, and equilibrium solution, respectively.

Stability in MeOH = assay type: physicochemical; conditions: 500 μM
Method: For the stability measurements in polar solvents, each compound was dissolved at room temperature in MeOH or PBS (0.025 M, pH 7.4) up to a final concentration of 500 μM.

TNKS1 = molecular target: T1, TNKS1 (Homo sapiens, UniProt O95271); experiment: PARP profiling activity assay, TNKS1; assay type: biochemical
T1 sequence (O95271 1-1327): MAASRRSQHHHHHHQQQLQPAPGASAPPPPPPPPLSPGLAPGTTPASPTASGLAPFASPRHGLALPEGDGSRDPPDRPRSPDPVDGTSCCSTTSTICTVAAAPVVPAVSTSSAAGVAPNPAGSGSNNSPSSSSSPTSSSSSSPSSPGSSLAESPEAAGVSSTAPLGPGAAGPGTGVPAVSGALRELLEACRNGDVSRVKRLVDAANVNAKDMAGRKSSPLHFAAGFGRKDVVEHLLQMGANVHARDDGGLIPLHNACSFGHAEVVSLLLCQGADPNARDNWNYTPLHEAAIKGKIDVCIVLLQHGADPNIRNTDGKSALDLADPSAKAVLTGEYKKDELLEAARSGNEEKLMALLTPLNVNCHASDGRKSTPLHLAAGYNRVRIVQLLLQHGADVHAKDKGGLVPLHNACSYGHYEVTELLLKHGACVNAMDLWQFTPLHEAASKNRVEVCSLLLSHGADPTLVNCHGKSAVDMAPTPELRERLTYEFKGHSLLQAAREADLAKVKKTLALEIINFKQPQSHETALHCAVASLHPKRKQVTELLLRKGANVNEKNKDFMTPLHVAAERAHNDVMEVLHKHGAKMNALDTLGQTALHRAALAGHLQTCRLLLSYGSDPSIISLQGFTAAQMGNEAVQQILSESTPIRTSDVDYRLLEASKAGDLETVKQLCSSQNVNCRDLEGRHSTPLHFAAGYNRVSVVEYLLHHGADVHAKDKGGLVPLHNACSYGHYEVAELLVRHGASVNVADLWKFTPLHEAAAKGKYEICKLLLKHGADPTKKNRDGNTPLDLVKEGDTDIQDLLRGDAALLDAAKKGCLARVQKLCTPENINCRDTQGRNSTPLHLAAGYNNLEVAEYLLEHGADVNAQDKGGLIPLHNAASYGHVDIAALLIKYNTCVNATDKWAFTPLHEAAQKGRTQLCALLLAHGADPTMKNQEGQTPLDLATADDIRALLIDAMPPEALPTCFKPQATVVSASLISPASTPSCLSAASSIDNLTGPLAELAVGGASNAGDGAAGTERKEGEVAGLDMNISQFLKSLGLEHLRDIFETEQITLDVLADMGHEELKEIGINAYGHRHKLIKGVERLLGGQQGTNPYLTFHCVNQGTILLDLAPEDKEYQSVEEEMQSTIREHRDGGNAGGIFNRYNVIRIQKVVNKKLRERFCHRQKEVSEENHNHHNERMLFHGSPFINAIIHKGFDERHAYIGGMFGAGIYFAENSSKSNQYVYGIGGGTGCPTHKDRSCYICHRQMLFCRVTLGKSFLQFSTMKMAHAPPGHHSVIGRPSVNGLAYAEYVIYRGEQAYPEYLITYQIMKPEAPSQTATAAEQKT
Method: Inhibition experiments were performed using a homogenous assay measuring NAD+ consumption.[80]−[82] Reactions were carried out in quadruplicate, and IC50 curves were fitted using sigmoidal dose response curve (four variables) in GraphPad Prism version 8.02.

**Q.** With Cc1ccc2c(c1)sc1nnc(N)n12 [Compound 21, 7-Methyl[1,2,4]triazolo[3,4-b][1,3]benzothiazol-3-amine] as the compound, how does the “GI RM % (retention membrane percentage)” value [1] read?
**A.** 1.8%

**Q.** And the Papp at 5 h, 500 μM [1]?
**A.** 0.281 ×10⁻⁶ cm/s

**Q.** And the “stab. in MeOH” value (Stability in MeOH)?
**A.** >24 h

**Q.** And the IC50 (TNKS1)?
**A.** 2.1 µM

**Q.** With COc1ccc(OC)c2c1sc1nnc(N)n12 [Compound 27, 5,8-Dimethoxy[1,2,4]triazolo[3,4-b][1,3]benzothiazol-3-amine] as the compound, how does the “GI RM % (retention membrane percentage)” value [1] read?
**A.** 1.3%

**Q.** What about the Papp at 5 h, 500 μM [1] of the same compound?
**A.** 0.144 ×10⁻⁶ cm/s

**Q.** And the “stab. in MeOH” value (Stability in MeOH)?
**A.** >24 h

**Q.** What about the IC50 (TNKS1) of the same compound?
**A.** 5.4 µM
